{"source": "patent US10444149B2", "about": "“Fluorescent compounds as sensing agents” (OHIO NORTHERN UNIVERSITY, priority 2016, dated 2019)", "key": {"[1]": {"experiment": "Detection of lead in methanol extract of soil", "description": "A lead-free soil sample was collected, placed into a Buchner funnel, and soaked with 1 mL of 0.15 M Pb(NO3)2 in water to introduce lead to the soil. As a control sample, the same was performed with the lead-free soil without exposure to Pb^2+. After soaking, the soil samples were washed with 50 mL of methanol. A sample from each filtrate was diluted in 3:1 tetrahydrofuran:methanol and exposed to Compound 25. […] This example illustrates that the substituted chromones described herein may be useful in detecting ions from soil extracts."}, "[2]": {"experiment": "Emission spectrum on exposure to varying amounts of lead nitrate", "settings": "5 μM compound; 3:1 or 2:1 tetrahydrofuran:methanol; excitation 370 nm", "description": "Compound 20 was dissolved in methanol and then exposed to varying amounts of […] (i.e., Pb^2+). […] Therefore, a kit, method, system, or the like may utilize a specific solvent system for detection of lead or other Ions. Alternatively, and especially where the metal ion concentration is unknown, a kit, method, system, or the like may utilize a series of solvent systems in parallel to determine a concentration of metal ions.\nA 5 μM sample of Compound 25 in 3:1 tetrahydrofuran:methanol or 2:1 tetrahydrofuran:methanol was prepared and exposed to varying amounts of Pb(NO3)2 (i.e., Pb^2+) dissolved in deionized water."}, "[3]": {"experiment": "Visual ion selectivity test, excited at 365 nm", "settings": "3:1 tetrahydrofuran:methanol", "description": "Compound 25 was dissolved in 3:1 tetrahydrofuran:methanol and then exposed to varying amounts of Zn/SO4 (i.e., Zn^2+), (NH4)2Fe(SO4)2.6H2O (i.e., Fe^2+), Fe2O3 (i.e., Fe^3+), CuSO4 (i.e., Cu^2+), or Pb(NO3)2 (i.e., Pb^2+) each in deionized water. Upon visual inspection when excited at 365 nm, the sample exposed to Pb^2+ turned green while all other samples remained blue."}, "[4]": {"experiment": "Extraction of lead from water with octanol and triethylamine", "settings": "3 mM Pb(NO3)2, 1 equivalent triethylamine", "description": "A 3 mM Pb(NO3)2 sample was prepared in deionized water and Compound 25 was added to give a green fluorescence. The lead was then extracted from the water using either 1-octanol or 2-octanol each with 1 equivalent (relative to Compound 25) of triethylamine, which turned the octanol portion green. After washing thrice with 1-octanol, 99% of the Pb^2+ had been extracted from the water. After washing twice with 2-octanol, 83% of the Pb^2+ had been extracted from the water."}, "[5]": {"experiment": "Visual detection limit, blue to green fluorescence change", "settings": "5 μM compound in 3:1 tetrahydrofuran:methanol; Pb(NO3)2 in deionized water", "description": "The detection limit Pb(NO3)2 (i.e., Pb^2+) for Compound 25 in 3:1 tetrahydrofuran:methanol was tested by exposing samples of 5 μM Compound 25 to ever decreasing concentrations of Pb(NO3)2 dissolved in deionized water.\nA 40 mM solution of Pb(NO3)2 (i.e., Pb^2+) was prepared in tap water and then diluted with 3:1 tetrahydrofuran:methanol to a lead concentration of 133 μM. The resultant sample was added to solutions of 5 μM sample of Compound 25 in 3:1 tetrahydrofuran:methanol. […] This example illustrates that the lead detection can be performed using tap water, which includes a variety of other ions."}, "[6]": {"experiment": "Peak absorption wavelength, peak emission wavelength and fluorescent quantum yield", "assay_type": "physicochemical", "settings": "solvent dichloromethane", "description": "Table 2 provides a peak absorption wavelength (λabs maximum), peak emission wavelength (λem maximum), a fluorescent quantum yield (ΦF), and a synthesis yield for the various compounds. The synthesis yield is based on the synthetic pathway illustrated in FIG. 1."}}, "note": "Marks after values point to notes of the source that are not given here."}
{"compound": "COC(=O)C(C)(C)C1Oc2ccc(OC)cc2C(=O)/C1=C\\NS(=O)(=O)c1ccc(OC)cc1", "note": "(stereo not shown) [Compound 25, (Z)methyl-2-(6-methoxy-3-(((4-methoxyphenyl)sulfonamido)methy-lene)-4-oxochroman-2-yl)-2-methylpropanoate]", "values": [{"measurement": "color change with soil extract", "setting": "[1]; extract from soil exposed to Pb^2+, diluted in 3:1 tetrahydrofuran:methanol", "value": "color change from blue to green"}, {"measurement": "color change with soil extract", "setting": "[1]; extract from soil not exposed to Pb^2+, same dilution", "value": "no color change"}, {"measurement": "change of peak emission in the presence of Pb^2+", "setting": "[2]", "value": "red-shift and intensity decrease"}, {"measurement": "visual change of fluorescence colour", "setting": "[2]", "value": "blue to green"}, {"measurement": "fluorescence colour of sample exposed to Cu^2+", "setting": "[3]", "value": "remained blue"}, {"measurement": "fluorescence colour of sample exposed to Fe^2+", "setting": "[3]", "value": "remained blue"}, {"measurement": "fluorescence colour of sample exposed to Fe^3+", "setting": "[3]", "value": "remained blue"}, {"measurement": "fluorescence colour of sample exposed to Zn^2+", "setting": "[3]", "value": "remained blue"}, {"measurement": "selectivity among heavy metal ions", "setting": "[3]; Zn^2+, Fe^2+, Fe^3+, Cu^2+, Pb^2+ compared", "value": "selectivity for Pb^2+ ions over other heavy metal ions"}, {"measurement": "fluorescence colour of sample exposed to Pb^2+", "setting": "[3]; excited at 365 nm", "value": "turned green"}, {"measurement": "Pb^2+ extracted from the water", "setting": "[4]; washing thrice with 1-octanol", "value": 99, "unit": "%"}, {"measurement": "Pb^2+ extracted from the water", "setting": "[4]; washing twice with 2-octanol", "value": 83, "unit": "%"}, {"measurement": "speed of the color change", "setting": "[5]", "value": "almost instantaneous"}, {"measurement": "ΦF", "setting": "[6]", "value": "69* %"}, {"measurement": "λabs maximum", "setting": "[6]", "value": 392, "unit": "nm"}, {"measurement": "λem maximum", "setting": "[6]", "value": 527, "unit": "nm"}]}
